A word on the IC50: it is the point on the concentration scale where inhibition reaches its midpoint.

For the assay, the target named is rat PDE10 enzyme (Rattus norvegicus (Rat), UniProt Q9QYJ6). Put plainly: PDE10 scintillation proximity assay (SPA), inhibition of rat PDE10 enzyme activity. The assay is classed as biochemical. The conditions noted are these: geometric mean of 2-4 determinations unless otherwise indicated (b: ≧5 determinations; c: single determination). As for the experimental part: PDE10 activity was measured using a scintillation assay (SPA-based method) similar to that previously described by Seeger, T. F. et al., Brain Research 985 (2003) 113-126. The compounds' relative activity as PDE10 inhibitors was investigated by assaying a fixed amount of enzyme in the presence of the test compound and low substrate concentration (cAMP) such that an IC50 could be determined. […] The assay is performed in a 384-well format with 50 μL assay buffer (50 mM TRIS pH 7.5; 1.3 mM MgCl2; 0.01% Brij) containing enough PDE10 to convert ˜20% of 20 nM ^3H-cAMP, and a range of inhibitors. Reactions are incubated for 30 minutes at 25° C. The addition of 20 μL of 8 mg/ml yttrium silicate SPA beads (PerkinElmer) stops the reaction. The plates are sealed (TopSeal, PerkinElmer) and the beads are allowed to settle for 8 hrs, after which they are read on the Trilux Microbeta overnight. ^1Rat enzyme preparation:^2Human enzyme preparation:
The recombinant Bacmid was isolated and used to transfect sf9 insect cells to generate a viral stock. To generate cell paste for purification, sf21 cells were infected with the virus stock and cells were harvested 72 hours after infection as described in Seeger, T. F. et al., Brain Research 985 (2003) 113-126. Insect cell paste was lysed and after centrifugation, the supernatant was chromatographed on Ni-NTA agarose (Qiagen) followed by Mono Q (GE Healthcare Life Sciences) as described in Seeger, T. F. et al., Brain Research 985 (2003) 113-126.

Where only a bound is given, the exact number is not on record here.

Sequence of rat PDE10 enzyme (Q9QYJ6 24-794): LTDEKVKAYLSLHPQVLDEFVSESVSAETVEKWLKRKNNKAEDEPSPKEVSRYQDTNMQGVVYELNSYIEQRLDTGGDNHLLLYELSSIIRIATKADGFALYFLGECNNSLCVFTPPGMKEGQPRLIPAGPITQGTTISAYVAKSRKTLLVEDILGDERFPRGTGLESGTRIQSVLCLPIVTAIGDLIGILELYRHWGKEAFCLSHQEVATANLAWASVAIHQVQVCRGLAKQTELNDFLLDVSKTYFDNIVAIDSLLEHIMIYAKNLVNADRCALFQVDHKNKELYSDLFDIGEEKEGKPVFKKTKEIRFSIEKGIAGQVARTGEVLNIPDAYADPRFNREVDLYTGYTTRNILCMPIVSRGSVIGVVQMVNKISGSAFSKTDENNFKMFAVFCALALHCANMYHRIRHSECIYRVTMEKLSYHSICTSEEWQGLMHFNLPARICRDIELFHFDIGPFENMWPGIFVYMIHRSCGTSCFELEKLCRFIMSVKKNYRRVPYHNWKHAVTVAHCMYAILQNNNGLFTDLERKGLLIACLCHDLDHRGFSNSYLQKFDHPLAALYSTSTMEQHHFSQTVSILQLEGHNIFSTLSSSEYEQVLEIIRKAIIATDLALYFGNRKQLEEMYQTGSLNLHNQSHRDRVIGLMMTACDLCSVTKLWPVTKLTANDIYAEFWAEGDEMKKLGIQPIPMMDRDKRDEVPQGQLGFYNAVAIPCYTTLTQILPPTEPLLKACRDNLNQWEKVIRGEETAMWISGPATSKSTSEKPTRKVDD

In turn, `COc1ccc2c(n1)CCN(c1ncnn3c(C)nc(-c4ccccc4F)c13)C2` [Example 66, 6-[5-(2-fluorophenyl)-7-methylimidazo[5,1-f][1,2,4]triazin-4-yl]-2-methoxy-5,6,7,8-tetrahydro-1,6-naphthyridine] returned an IC50 of 2.6 nM.

As for `Cc1nn(C)c2c1CN(c1ncnn3c(C)nc([C@H]4CCOC4)c13)CC2` [Example 84, 4-(1,3-dimethyl-1,4,6,7-tetrahydro-5H-pyrazolo[4,3-c]pyridin-5-yl)-7-methyl-5-[(3R)-tetrahydrofuran-3-yl]imidazo[5,1-f][1,2,4]triazine], the IC50 is 8.1 nM.

`Cc1nc(C2CCOCC2)c2c(N3CCn4ncc(C(F)(F)F)c4C3)ncnn12` [Example 102, 7-methyl-5-(tetrahydro-2H-pyran-4-yl)-4-[3-(trifluoromethyl)-6,7-dihydropyrazolo[1,5-a]pyrazin-5(4H)-yl]imidazo[5,1-f][1,2,4]triazine] showed an IC50 of 3.94 nM.

Regarding `Cc1nc(-c2ccccc2F)c2c(N3CCc4nc(C5CC5)nc(OC(F)F)c4C3)ncnn12` [Example 140, 2-cyclopropyl-4-(difluoromethoxy)-6-[5-(2-fluorophenyl)-7-methylimidazo[5,1-f][1,2,4]triazin-4-yl]-5,6,7,8-tetrahydropyrido[4,3-d]pyrimidine], it took 1.5 nM to reach half-maximal inhibition (IC50).

Regarding `Cc1nc(-c2ccccc2F)c2c(N3CCc4nc(C5CC5)oc4C3)ncnn12` [Example 53, 4-(2-cyclopropyl-6,7-dihydro[1,3]oxazolo[5,4-c]pyridin-5(4H)-yl)-5-(2-fluorophenyl)-7-methylimidazo[5,1-f][1,2,4]triazine], inhibition was half-maximal at 1.79 nM (IC50).

Molecule `CCn1c(C)nc2c(c1=O)CN(c1ncnn3c(C)nc([C@@H]4CCOC4)c13)CC2` [Example 129, 3-ethyl-2-methyl-6-{7-methyl-5-[(3S)-tetrahydrofuran-3-yl]imidazo[5,1-f][1,2,4]triazin-4-yl}-5,6,7,8-tetrahydropyrido[4,3-d]pyrimidin-4(3H)-one] came in with an IC50 of 0.0998 nM.

Turning to `Cc1nc(-c2ccccc2F)c2c(N3CCc4nc(N(C)C)ccc4C3)ncnn12` [Example 67, 6-[5-(2-fluorophenyl)-7-methylimidazo[5,1-f][1,2,4]triazin-4-yl]-N,N-dimethyl-5,6,7,8-tetrahydro-1,6-naphthyridin-2-amine], the IC50 was determined as 0.325 nM.

Consider `CCn1c(C2CC2)nc2c(c1=O)CN(c1ncnn3c(C)nc([C@@H]4CCOC4)c13)CC2` [Example 150, 2-cyclopropyl-3-ethyl-6-{7-methyl-5-[(3S)-tetrahydrofuran-3-yl]imidazo[5,1-f][1,2,4]triazin-4-yl}-5,6,7,8-tetrahydropyrido[4,3-d]pyrimidin-4(3H)-one], for which inhibition was half-maximal at 0.0697 nM (IC50).

For `CCc1c2c(nn1C)CCN(c1ncnn3c(C)nc(-c4ccc(F)cc4Cl)c13)C2` [Example 120, 5-(2-chloro-4-fluorophenyl)-4-(3-ethyl-2-methyl-2,4,6,7-tetrahydro-5H-pyrazolo[4,3-c]pyridin-5-yl)-7-methylimidazo[5,1-f][1,2,4]triazine], 0.233 nM corresponded to half-maximal inhibition (IC50).

`Cc1nc(C2CCOCC2)c2c(N3CCc4nc(C5CC5)ncc4C3)ncnn12` [Example 61, 2-cyclopropyl-6-[7-methyl-5-(tetrahydro-2H-pyran-4-yl)imidazo[5,1-f][1,2,4]triazin-4-yl]-5,6,7,8-tetrahydropyrido[4,3-d]pyrimidine] came in with an IC50 of less than 3.52 nM.

In turn, `Cc1nc(CC(C)C)c2c(N3CCc4nc(C5CC5)ncc4C3)ncnn12` [Example 55, 2-cyclopropyl-6-(5-isobutyl-7-methylimidazo[5,1-f][1,2,4]triazin-4-yl)-5,6,7,8-tetrahydropyrido[4,3-d]pyrimidine] gave an IC50 of 2.19 nM.

As for `CCc1nn(C)c2c1CN(c1ncnn3c(C)nc([C@H]4CCCO4)c13)CC2` [Example 80, 4-(3-ethyl-1-methyl-1,4,6,7-tetrahydro-5H-pyrazolo[4,3-c]pyridin-5-yl)-7-methyl-5-[(2R)-tetrahydrofuran-2-yl]imidazo[5,1-f][1,2,4]triazine], the IC50 was found to be 17.6 nM.

`COc1cc2c(cc1OC)CN(c1ncnn3c(C)nc([C@@H]4CCCO4)c13)CC2` [Example 83, 6,7-dimethoxy-2-{7-methyl-5-[(2S)-tetrahydrofuran-2-yl]imidazo[5,1-f][1,2,4]triazin-4-yl}-1,2,3,4-tetrahydroisoquinoline]: the IC50 stood at 29.7 nM.

Regarding `Cc1nc2c(c(=O)n1C)CN(c1ncnn3c(C)nc(-c4ccccc4F)c13)CC2` [Example 124, 6-[5-(2-fluorophenyl)-7-methylimidazo[5,1-f][1,2,4]triazin-4-yl]-2,3-dimethyl-5,6,7,8-tetrahydropyrido[4,3-d]pyrimidin-4(3H)-one], it took 2.71 nM to reach half-maximal inhibition (IC50).

The molecule `Cc1nn(C)c2c1CN(c1ncnn3c(C)nc(-c4ccccc4F)c13)CC2` [Example 115, 4-(1,3-dimethyl-1,4,6,7-tetrahydro-5H-pyrazolo[4,3-c]pyridin-5-yl)-5-(2-fluorophenyl)-7-methylimidazo[5,1-f][1,2,4]triazine] returned an IC50 of 0.834 nM.

In turn, `Cc1nc(CC(C)C)c2c(N3CCc4nc(C5CC5)oc4C3)ncnn12` [Example 54, 4-(2-cyclopropyl-6,7-dihydro[1,3]oxazolo[5,4-c]pyridin-5(4H)-yl)-5-isobutyl-7-methylimidazo[5,1-f][1,2,4]triazine] had an IC50 of 4.52 nM.

As to `Cc1nc([C@H]2CCOC2)c2c(N3CCc4nn(C)cc4C3)ncnn12` [Example 99, 7-methyl-4-(2-methyl-2,4,6,7-tetrahydro-5H-pyrazolo[4,3-c]pyridin-5-yl)-5-[(3R)-tetrahydrofuran-3-yl]imidazo[5,1-f][1,2,4]triazine], the IC50 was found to be 6.52 nM.

For the molecule `Cc1nc([C@@H]2CCOC2)c2c(N3CCc4noc(C(C)C)c4C3)ncnn12` [Example 30, 7-methyl-4[3-(propan-2-yl)-6,7-dihydro[1,2]oxazolo[4,3-c]pyridin-5(4H)-yl]-5-[(3S)-tetrahydrofuran-3-yl]imidazo[5,1-f][1,2,4]triazine], the 50% inhibitory concentration (IC50) was 3.52 nM.

Take `COc1nccc2c1CN(c1ncnn3c(C)nc(-c4ccccc4F)c13)CC2` [Example 68, 2-[5-(2-fluorophenyl)-7-methylimidazo[5,1-f][1,2,4]triazin-4-yl]-8-methoxy-1,2,3,4-tetrahydro-2,7-naphthyridine]: half-maximal inhibition (IC50) was put at 0.895 nM.

`Cc1c2c(nn1C)CCN(c1ncnn3c(C)nc([C@@H]4CCOC4)c13)C2` [Example 101, 4-(2,3-dimethyl-2,4,6,7-tetrahydro-5H-pyrazolo[4,3-c]pyridin-5-yl)-7-methyl-5-[(3S)-tetrahydrofuran-3-yl]imidazo[5,1-f][1,2,4]triazine] returned an IC50 of 0.283 nM.

`Cc1nc(-c2ccccc2F)c2c(N3CCc4cccnc4C3)ncnn12` [Example 65] showed an IC50 of 2.98 nM.

As to `Cc1ccc2c(n1)CCN(c1ncnn3c(C)nc(-c4ccccc4F)c13)C2` [Example 138, 6-[5-(2-fluorophenyl)-7-methylimidazo[5,1-f][1,2,4]triazin-4-yl]-2-methyl-5,6,7,8-tetrahydro-1,6-naphthyridine], the IC50 is 0.49 nM.

On to `Cc1nc([C@@H]2CCOC2)c2c(N3CCc4nc(C5CC5)nc(C(F)(F)F)c4C3)ncnn12` [Example 89, 2-cyclopropyl-6-{7-methyl-5-[(3S)-tetrahydrofuran-3-yl]imidazo[5,1-f][1,2,4]triazin-4-yl}-4-(trifluoromethyl)-5,6,7,8-tetrahydropyrido[4,3-d]pyrimidine], for which the IC50 is 0.561 nM.

Consider `Cc1nc(-c2ccccc2F)c2c(N3CCn4ncc(C(F)(F)F)c4C3)ncnn12` [Example 109, 5-(2-fluorophenyl)-7-methyl-4-[3-(trifluoromethyl)-6,7-dihydropyrazolo[1,5-a]pyrazin-5(4H)-yl]imidazo[5,1-f][1,2,4]triazine], for which the IC50 was 1.73 nM.

With `COc1cc2c(cc1OC)CN(c1ncnn3c(C)nc([C@H]4CCCO4)c13)CC2` [Example 82, 6,7-dimethoxy-2-{7-methyl-5-[(2R)-tetrahydrofuran-2-yl]imidazo[5,1-f][1,2,4]triazin-4-yl}-1,2,3,4-tetrahydroisoquinoline], 37.2 nM corresponded to half-maximal inhibition (IC50).

`Cc1nc2c(s1)CN(c1ncnn3c(C)nc(-c4ccccc4F)c13)CC2` [Example 114, 5-(2-fluorophenyl)-7-methyl-4-(2-methyl-6,7-dihydro[1,3]thiazolo[5,4-c]pyridin-5(4H)-yl)imidazo[5,1-f][1,2,4]triazine] came in with an IC50 of 1.49 nM.

Molecule `CCn1c(C2CC2)nc2c(c1=O)CN(c1ncnn3c(C)nc(-c4ccccc4F)c13)CC2` [Example 149, 2-cyclopropyl-3-ethyl-6-[5-(2-fluorophenyl)-7-methylimidazo[5,1-f][1,2,4]triazin-4-yl]-5,6,7,8-tetrahydropyrido[4,3-d]pyrimidin-4(3H)-one] registered an IC50 of 0.497 nM.

Molecule `Cc1nc2c(c(OC(F)F)n1)CN(c1ncnn3c(C)nc([C@@H]4CCOC4)c13)CC2` [Example 36, 4-(difluoromethoxy)-2-methyl-6-{7-methyl-5-[(3S)-tetrahydrofuran-3-yl]imidazo[5,1-f][1,2,4]triazin-4-yl}-5,6,7,8-tetrahydropyrido[4,3-d]pyrimidine] registered an IC50 of 0.44 nM.
